Results on 10 compounds are retold here after US6472227B1, “Barbiturate assay, tracers, immunogens, antibodies and kit” (Abbott Laboratories, priority 1986, dated 2002).

Data set [1] is described as follows: Tracer stability: polarization after storage in buffer or boric acid (Table 1). The format is physicochemical. Further details: Polarization (Buffer): unit not given beside the values. An excerpt: It was unexpectedly discovered that the presence of a carbon-carbon double bond between the fluorescein moiety and the barbiturate ring portions of the novel tracers of the present invention advantageously orients the tracer for optimal interaction with the antibody.

In data set [2] the test system is antibodies raised against an immunogen having the structure shown in FIG. 28. The data set can be described thus: Fluorescence polarization immunoassay cross-reactivity in drug-free normal human urine, tracer of FIG. 5. The format is binding, sheep. Particulars: for amount of the test compound found in the resulting human urine: 200 ng/mL added to drug-free urine, secobarbital standard. Here is the method: (§1) The antibodies of the present invention are prepared by eliciting a response in sheep to the immunogens described supra. The immunogen is administered to animals or to in vitro cultures of immunocompetent cells by a series of innoculations, in a manner well known to those skilled in the art.
(§2) The tracer formulation presently preferred is 150 nanomolar tracer in: 0.1 molar phosphate buffer at pH 6.2; 5% sodium 5-sulfosalicylate; 0.1% sodium azide; and 0.01% bovine gamma-globulin. The antiserum formulation comprises sheep serum diluted with: 0.1 molar tris buffer at pH 7.5; 0.1% sodium azide; 0.1% bovine gamma-globulin; and 2% ethylene glycol (volume/volume). The dilution buffer comprises: 0.1 molar sodium phosphate at pH 7.5; 0.1% sodium azide; and 0.01% bovine gamma-globulin. The pretreatment solution comprises: 0.01% bovine gamma-globulin; 0.1 molar tris buffer at pH 7.5; 0.1% sodium azide; and 10 mg/mL riboflavin binding protein.
(§3) A minimum of fifty microliters of urine is required. The calibrators, controls, or unknown samples are pipetted directly into the sample well of the TDx® or ADx® sample cartridge. […] The assay procedure from this point is fully automated.
(§4) If a manual assay is being performed, then the sample is mixed with the pretreatment solution in dilution buffer and a background reading is taken. The tracer and antibody are then mixed into the test solution. After incubation, a fluorescence polarization reading is taken.
(§5) The net fluorescence polarization value of each calibrator, control or sample is determined and is printed on the output tape of an instrument such as the Abbott TDx® Analyzer. […] The concentration of each control or sample is read off the stored calibration curve and printed on the output tape.
Cross-reactivity was tested by the method of the present invention for the commonly-used barbiturates. […]
The five columns indicate the following information:
In other words, when 200 ng of secobarbital were added to drug-free normal human urine, approximately 200 ng of secobarbital were detected in the resulting urine sample. Thus, the closer the factor is to 1.0, the more accurate the assay is with respect to the particular test compound analyzed.
The percent cross-reactivity value presented in column five was obtained by the following mathematical formula: [formula]
(§6) The five columns in Tables 4(a) and 4(b) indicate the same information as is described above for Table 3(a).

In data set [3] the test system is antibodies raised against an immunogen having the structure shown in FIG. 29. The data set can be described thus: Fluorescence polarization immunoassay cross-reactivity in drug-free normal human urine, tracer of FIG. 30. The format is binding, sheep. The conditions noted are these: for % CR / Conc. Found: tracer FIG. 30; for amount of the test compound found in the resulting human urine: 200 ng/mL added to drug-free urine, secobarbital standard. Here is the method: as §1, §2, §3, §4, §5
Cross-reactivity was tested by the method of the present invention for the commonly-used barbiturates. In each case, compounds were assayed on the Abbott Laboratories+ TDx® Clinical Analyzer or the ADx® Drugs of Abuse System after adding a known quantity (200 ng/mL) of the barbiturate test compound to drug-free normal human urine.
as §6
On the technique in general: Fluorescence polarisation rises when a labelled molecule tumbles more slowly, as on binding a larger partner.

For data set [4] the test system is unchanged. The data set can be described thus: Fluorescence polarization immunoassay cross-reactivity, tracer of FIG. 31. The conditions noted are these: tracer FIG. 31. The format is binding, sheep. On the procedure: as §1

Consider `CCCC(C)C1(CC(=O)NCc2c(O)ccc3c2Oc2cc(O)ccc2C32OC(=O)c3ccccc32)C(=O)NC(=O)NC1=O` (centres unmarked), for which the “Polarization (Boric Acid)” value is reported as 269.39 in data set [1] (2-8 °C, Day 0); 271.12 in data set [1] (2-8 °C, Day 1); 228.62 in data set [1] (2-8 °C, Day 7); 62.68 in data set [1] (45 °C, Day 1); above 68.68 in data set [1] (45 °C, Day 7). Besides, the “Polarization (Buffer)” value is 247.79 in data set [1] (2-8 °C, Day 0); 238.09 in data set [1] (2-8 °C, Day 1); 168.21 in data set [1] (2-8 °C, Day 7); 48.70 in data set [1] (45 °C, Day 1); above 48.70 in data set [1] (45 °C, Day 7).
For the compound `CCC1(c2ccccc2)CCC(=O)NC1=O` (centres unmarked) [Glutethimide], the “amount of the test compound found” value in data set [2] (1 μg/mL added) is given as “ND (None detected: Concentration less than the sensitivity of the assay (60 ng/mL))”; in data set [2] (10 μg/mL added) it was 180 ng/mL; in data set [3] (1 μg/mL added), 89 ng/mL; in data set [3] (10 μg/mL added), 480 ng/mL. Also, the factor was found to be 0.018 in data set [2] (10 μg/mL added), 0.089 in data set [3] (1 μg/mL added) and 0.048 in data set [3] (10 μg/mL added). Besides, the percent cross reactivity was found to be 1.80% in data set [2] (10 μg/mL added), 8.90% in data set [3] (1 μg/mL added) and 4.80% in data set [3] (10 μg/mL added). Further, the “% CR” value in data set [3] (Conc. Added 10 (ng/mL)) and in data set [4] (Conc. Added 10 (ng/mL)) was 4.70% throughout. Besides, the “Conc. Found” value in data set [3] (Conc. Added 10 (ng/mL)) and in data set [4] (Conc. Added 10 (ng/mL)) was 470 ng/mL in each case.
With `CC(C)Cc1ccc(C(C)C(=O)O)cc1` (centres unmarked) [Ibuprofen], in data set [2] (1 μg/mL added), the “amount of the test compound found” value is “ND (None detected: Concentration less than the sensitivity of the assay (60 ng/mL))”. Also, the “amount of the test compound found” value in data set [2] (10 μg/mL added) is reported as “ND (None detected: Concentration less than the sensitivity of the assay (60 ng/mL))”. Moreover, in data set [2] (100 μg/mL added), the “amount of the test compound found” value worked out at 70 ng/mL, the factor is listed as 0.0007 and the percent cross reactivity is reported as 0.07%. In data set [3] (Conc. Added 1000 (ng/mL)), the “% CR” value was 0.002% and the “Conc. Found” value is 20 ng/mL. In data set [4] (Conc. Added 1000 (ng/mL)), the “% CR” value came to 0.005% and the “Conc. Found” value came to 50 ng/mL.
On to `CCCC(C)C1(CC)C(=O)NC(=O)NC1=O` (centres unmarked) [Pentobarbital], for which the results for the “factor which overestimates or underestimates the compound assayed for” value in data set [2] (200 ng/mL added) and in data set [3] (200 ng/mL added) were 1.05 and 0.65, respectively. Moreover, the percent cross reactivity in data set [2] (200 ng/mL added) is 105%; in data set [3] (200 ng/mL added), 65%. For the same compound, the entries for the “amount of the test compound found in the resulting human urine” value (“amount … in the resulting human urine” for short) in data set [2] and in data set [3] were 210 ng/mL and 129 ng/mL, respectively. Moreover, the “% CR” value in data set [3] (Conc. Added 1200 ng/mL) was 62%; in data set [4] (Conc. Added 1200 ng/mL), 64%. Moreover, the “Conc. Found” value in data set [3] (Conc. Added 1200 ng/mL) is 740 ng/mL; in data set [4] (Conc. Added 1200 ng/mL), 770 ng/mL.
With `CCC1(c2ccccc2)C(=O)NC(=O)NC1=O` [Phenobarbital], the “factor which overestimates or underestimates the compound assayed for” value is 1.05 in data set [2] (200 ng/mL added) and 0.70 in data set [3] (200 ng/mL added). Further, the percent cross reactivity in data set [2] (200 ng/mL added) stood at 105%; in data set [3] (200 ng/mL added), 70%. Besides, the results for the “amount … in the resulting human urine” value in data set [2] and in data set [3] were 210 ng/mL and 140 ng/mL, respectively. Also, the “% CR” value is on record as 62% in data set [3] (Conc. Added 1200 ng/mL) and 107% in data set [4] (Conc. Added 1200 ng/mL). Also, the “Conc. Found” value in data set [3] (Conc. Added 1200 ng/mL) is recorded as 740 ng/mL; in data set [4] (Conc. Added 1200 ng/mL), 1280 ng/mL.
Take `O=C1NC(=O)C(c2ccccc2)(c2ccccc2)N1` [Phenytoin]: the “amount of the test compound found” value in data set [2] (1 μg/mL added) is recorded as “ND (None detected: Concentration less than the sensitivity of the assay (60 ng/mL))”. Besides, in data set [2] (10 μg/mL added), the “amount of the test compound found” value is recorded as 320 ng/mL, the factor was 0.032 and the percent cross reactivity was 3.20%. In data set [2] (100 μg/mL added), the “amount of the test compound found” value is on record as 1020 ng/mL, the factor was found to be 0.0102 and the percent cross reactivity was 1.02%. Also, in data set [3] (Conc. Added 100 (ng/mL)), the “% CR” value is 0.04% and the “Conc. Found” value is recorded as 40 ng/mL. In addition, in data set [4] (Conc. Added 100 (ng/mL)), the “% CR” value is 0.09% and the “Conc. Found” value is 90 ng/mL.
On to `C=CCC1(C(C)CC)C(=O)NC(=O)NC1=O` (centres unmarked) [Talbutal], for which the entries for the “factor which overestimates or underestimates the compound assayed for” value in data set [2] (200 ng/mL added) and in data set [3] (200 ng/mL added) were 0.90 and 2.65, respectively. In addition, the percent cross reactivity in data set [2] (200 ng/mL added) is recorded as 90%; in data set [3] (200 ng/mL added), 265%. The “amount … in the resulting human urine” value in data set [2] is 180 ng/mL; in data set [3], 531 ng/mL. The “% CR” value in data set [3] (Conc. Added 1200 ng/mL) and in data set [4] (Conc. Added 1200 ng/mL) was above 167% throughout.
Regarding `CCCC(C)C1(C/C=C/C(=O)NCc2c(O)ccc3c2Oc2cc(O)ccc2C32OC(=O)c3ccccc32)C(=O)NC(=O)NC1=O` (centres unmarked) [drawing 9], the “Polarization (Buffer)” value in data set [1] (2-8 °C, Day 0) turned out to be 239.63; in data set [1] (2-8 °C, Day 1), 235.18; in data set [1] (2-8 °C, Day 7), 235.08; in data set [1] (45 °C, Day 1), 237.93; in data set [1] (45 °C, Day 7), 239.72.
Take `O=C1NC(=O)C(c2ccccc2)(c2ccc(O)cc2)N1` (centres unmarked) [p-Hydroxy phenytoin]: the “amount of the test compound found” value in data set [2] (1 μg/mL added) is “ND (None detected: Concentration less than the sensitivity of the assay (60 ng/mL))”; in data set [2] (10 μg/mL added), 340 ng/mL; in data set [2] (100 μg/mL added), 1200 ng/mL; in data set [3] (10 μg/mL added) it was “ND (None detected: Concentration less than the sensitivity of the assay (60 ng/mL))”; in data set [3] (100 μg/mL added), 101 ng/mL; in data set [3] (500 μg/mL added), 218 ng/mL. Moreover, the factor in data set [2] (10 μg/mL added) turned out to be 0.034; in data set [2] (100 μg/mL added), 0.012; in data set [3] (100 μg/mL added), 0.00010; in data set [3] (500 μg/mL added) it was 0.00004. For the same compound, the percent cross reactivity came to 3.40% in data set [2] (10 μg/mL added), 1.20% in data set [2] (100 μg/mL added), 0.10% in data set [3] (100 μg/mL added) and 0.04% in data set [3] (500 μg/mL added). In addition, the “% CR” value was 0.001% in data set [3] (Conc. Added 500 (ng/mL)) and 0.058% in data set [4] (Conc. Added 500 (ng/mL)). Further, the “Conc. Found” value in data set [3] (Conc. Added 500 (ng/mL)) came to 200 ng/mL; in data set [4] (Conc. Added 500 (ng/mL)), 290 ng/mL.
In the case of Primidone, the “amount of the test compound found” value in data set [2] (1 μg/mL added) is “ND (None detected: Concentration less than the sensitivity of the assay (60 ng/mL))”; in data set [2] (10 μg/mL added) it was 90 ng/mL; in data set [2] (100 μg/mL added), 320 ng/mL; in data set [3] (10 μg/mL added), “ND (None detected: Concentration less than the sensitivity of the assay (60 ng/mL))”; in data set [3] (100 μg/mL added), 195 ng/mL. Moreover, the factor in data set [2] (10 μg/mL added) is listed as 0.009; in data set [2] (100 μg/mL added) it was 0.0032; in data set [3] (100 μg/mL added), 0.00019. In addition, the percent cross reactivity in data set [2] (10 μg/mL added) is given as 0.90%; in data set [2] (100 μg/mL added), 0.32%; in data set [3] (100 μg/mL added), 0.19%. In addition, the “% CR” value is 0.18% in data set [3] (Conc. Added 100 (ng/mL)) and 0.24% in data set [4] (Conc. Added 100 (ng/mL)). Also, the “Conc. Found” value in data set [3] (Conc. Added 100 (ng/mL)) stood at 180 ng/mL; in data set [4] (Conc. Added 100 (ng/mL)) it was 240 ng/mL.
